Results from patent US11814391B2, “Macrocyclic compounds for the treatment of medical disorders” (Achillion Pharmaceuticals, Inc., priority 2018, dated 2023).

Target: Human Factor D (Homo sapiens (Human), UniProt P00746)
Assay: Human Factor D assay
Type: biochemical
Details: Human Factor D 80 nM, substrate Z-L-Lys-SBzl, A405; read-out: IC50 (Stars)
Protocol: The assay of Example 3 was used to determine the IC50's of the compounds. Other standard factor D inhibition assays are also available.
Human Factor D (purified from human serum, Complement Technology, Inc.) at 80 nM final concentration is incubated with test compound at various concentrations for 5 min at room temperature in 50 mM Tris, 1M NaCl, pH 7.5. A synthetic substrate Z-L-Lys-SBzI and DTNB (Ellman's reagent) are added to final concentrations of 100 μM each. Absorbance at 405 nm (A405) is recorded at 30 second intervals for 30 min using a microplate spectrophotometer. IC50 values are calculated by nonlinear regression of complement Factor D reaction rates as a function of test compound concentration.

Sequence of Human Factor D (P00746 26-253): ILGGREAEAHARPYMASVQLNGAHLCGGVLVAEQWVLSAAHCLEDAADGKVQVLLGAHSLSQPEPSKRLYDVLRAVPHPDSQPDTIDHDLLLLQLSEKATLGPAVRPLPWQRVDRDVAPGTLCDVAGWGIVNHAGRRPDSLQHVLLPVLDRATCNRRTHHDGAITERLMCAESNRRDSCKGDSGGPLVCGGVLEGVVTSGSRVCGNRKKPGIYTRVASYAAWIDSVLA

Structure (SMILES)	IC50 [µM]
CC(=O)c1nn2c3c(cc(NCC4CCCCC4)cc13)CCCCCCC(=O)NCC13CC(C(=O)Nc4nc(C(F)(F)F)ccc4C)N(C(=O)C2)C1C3 [Compound 52, (41R,43S,45R)-13-acetyl-15-((cyclohexylmethyl)amino)-N-(3-methyl-6-(trifluoromethyl)pyridin-2-yl)-3,7-dioxo-11H-42,6-diaza-1(1,7)-indazola-4(2,5)-bicyclo[3.1.0]hexanacyclotridecaphane-43-carboxamide]	< 1
CC(=O)c1nn2c3c(cc(CC(C)C)cc13)CCCCCCC(=O)NC[C@@]13C[C@@H](C(=O)Nc4nc(C(F)(F)F)ccc4C)N(C(=O)C2)[C@@H]1C3 [Compound 28, (4^1R,4^3S,4^5R)-1^3-acetyl-1^5-isobutyl-N-(3-methyl-6-(trifluoromethyl)pyridin-2-yl)-3,7-dioxo-1^1H-4^2,6-diaza-1(1,7)-indazola-4(2,5)-bicyclo[3.1.0]hexanacyclotridecaphane-4^3-carboxamide]	< 1
CC(=O)c1nn2c3c(cc(-c4cnc(C)nc4)cc13)CCCCCCC(=O)N(C)C[C@@]13C[C@@H](C(=O)Nc4cc(F)cc(Br)n4)N(C(=O)C2)[C@@H]1C3 [Compound 14, (4^1R,4^3S,4^5R)-1^3-acetyl-N-(6-bromo-4-fluoropyridin-2-yl)-6-methyl-1^5-(2-methylpyrimidin-5-yl)-3,7-dioxo-1^1H-4^2,6-diaza-1(1,7)-indazola-4(2,5)-bicyclo[3.1.0]hexanacyclotridecaphane-4^3-carboxamide]	< 1
CC(=O)c1nn2c3c(cc(-c4cnc(C)nc4)cc13)CCCCCCC(=O)NC[C@@]13C[C@@H](C(=O)NC(C)[C@H]4CC4(Cl)Cl)N(C(=O)C2)[C@@H]1C3 (stereo partly drawn) [Compound 29, (4^1R,4^3S,4^5R)-1^3-acetyl-N-((R)-1-((R)-2,2-dichlorocyclopropyl)ethyl)-1^5-(2-methylpyrimidin-5-yl)-3,7-dioxo-1^1H-4^2,6-diaza-1(1,7)-indazola-4(2,5)-bicyclo[3.1.0]hexanacyclotridecaphane-4^3-carboxamide]	< 1
CC(=O)c1nn2c3c(cc(CCC(C)C)cc13)CCCCCCC(=O)NC[C@@]13C[C@@H](C(=O)Nc4nc(C(F)(F)F)ccc4C)N(C(=O)C2)[C@@H]1C3 [Compound 20, (4^1R,4^3S,4^5R)-1^3-acetyl-1^5-isopentyl-N-(3-methyl-6-(trifluoromethyl)pyridin-2-yl)-3,7-dioxo-1^1H-4^2,6-diaza-1(1,7)-indazola-4(2,5)-bicyclo[3.1.0]hexanacyclotridecaphane-4^3-carboxamide]	< 1
CC(=O)c1nn2c3c(cc(-c4cnc(C)nc4)cc13)CCCCCCCCCCCO[C@@H]1CCN(C(=O)C2)[C@@H]1C(=O)NCc1cccc(Cl)c1F [Compound 54, (42S,43R)-13-acetyl-N-(3-chloro-2-fluorobenzyl)-15-(2-methylpyrimidin-5-yl)-3-oxo-11H-5-oxa-1(1,7)-indazola-4(1,3)-pyrrolidinacyclohexadecaphane-42-carboxamide]	< 1
COc1cc2c3c(c1)c(C(C)=O)nn3CC(=O)N1[C@H](C(=O)Nc3nc(C(F)(F)F)ccc3C)C[C@@]3(CNC(=O)CCCCCC2)C[C@@H]13 [Compound 6, (4^1R,4^3S,4^5R)-1^3-acetyl-1^5-methoxy-N-(3-methyl-6-(trifluoromethyl)pyridin-2-yl)-3,7-dioxo-1^1H-4^2,6-diaza-1(1,7)-indazola-4(2,5)-bicyclo[3.1.0]hexanacyclotridecaphane-4^3-carboxamide]	< 1
CC(=O)c1nn2c3c(cc(NCC(C)C)cc13)CCCCCCC(=O)NC[C@@]13C[C@@H](C(=O)Nc4nc(C(F)(F)F)ccc4C)N(C(=O)C2)[C@@H]1C3 [Compound 24, (4^1R,4^3S,4^5R)-1^3-acetyl-15-(isobutylamino)-N-(3-methyl-6-(trifluoromethyl)pyridin-2-yl)-3,7-dioxo-1^1H-4^2,6-diaza-1(1,7)-indazola-4(2,5)-bicyclo[3.1.0]hexanacyclotridecaphane-4^3-carboxamide]	< 1
CC(=O)c1nn2c3c(cc(N)cc13)CCCCCCC(=O)NC[C@@]13C[C@@H](C(=O)Nc4nc(C(F)(F)F)ccc4C)N(C(=O)C2)[C@@H]1C3 [Compound 15, (4^1R,4^3S,4^5R)-1^3-acetyl-1^5-amino-N-(3-methyl-6-(trifluoromethyl)pyridin-2-yl)-3,7-dioxo-1^1H-4^2,6-diaza-1(1,7)-indazola-4(2,5)-bicyclo[3.1.0]hexanacyclotridecaphane-4^3-carboxamide]	< 1
CC(=O)c1nn2c3c(cc(-c4nnc(C)o4)cc13)CCCCCCC(=O)NC[C@@]13C[C@@H](C(=O)Nc4nc(C(F)(F)F)ccc4C)N(C(=O)C2)[C@@H]1C3 [Compound 5, (4^1R,4^3S,4^5R)-1^3-acetyl-1^5-(5-methyl-1,3,4-oxadiazol-2-yl)-N-(3-methyl-6-(trifluoromethyl)pyridin-2-yl)-3,7-dioxo-1^1H-4^2,6-diaza-1(1,7)-indazola-4(2,5)-bicyclo[3.1.0]hexanacyclotridecaphane-4^3-carboxamide]	< 1
CC(=O)c1nn2c3c(cc(OC(C)C)cc13)CCCCCCC(=O)NC[C@@]13C[C@@H](C(=O)Nc4nc(C(F)(F)F)ccc4C)N(C(=O)C2)[C@@H]1C3 [Compound 19, (4^1R,4^3S,4^5R)-1^3-acetyl-1^5-isopropoxy-N-(3-methyl-6-(trifluoromethyl)pyridin-2-yl)-3,7-dioxo-1^1H-4^2,6-diaza-1(1,7)-indazola-4(2,5)-bicyclo[3.1.0]hexanacyclotridecaphane-4^3-carboxamide]	< 1
CC(=O)c1nn2c3c(cc(-c4cnc(C)nc4)cc13)CCCCCCCCO[C@@H]1CCN(C(=O)C2)[C@@H]1C(=O)NCc1cccc(Cl)c1F [Compound 40, (4^2S,4^3R)-1^3-acetyl-N-(3-chloro-2-fluorobenzyl)-1^5-(2-methylpyrimidin-5-yl)-3-oxo-1^1H-5-oxa-1(1,7)-indazola-4(1,3)-pyrrolidinacyclotridecaphane-4^2-carboxamide]	< 1
CC(=O)c1nn2c3c(cc(-c4cnc(C)nc4)cc13)CCCCCC(C)(C)C(=O)NC[C@@]13C[C@@H](C(=O)Nc4nc(C(F)(F)F)ccc4C)N(C(=O)C2)[C@@H]1C3 [Compound 10, (4^1R,4^3S,4^5R)-1^3-acetyl-8,8-dimethyl-N-(3-methyl-6-(trifluoromethyl)pyridin-2-yl)-1^5-(2-methylpyrimidin-5-yl)-3,7-dioxo-1^1H-4^2,6-diaza-1(1,7)-indazola-4(2,5)-bicyclo[3.1.0]hexanacyclotridecaphane-4^3-carboxamide]	< 1
CC(=O)c1nn2c3c(nc(C)cc13)C/C=C/CCCCCC(=O)NCc1ccc(Br)nc1NC(=O)[C@@H]1C[C@@]3(C)C[C@H]3N1C(=O)C2 [Compound 45, (20aS,21aR,22aR,E)-26-acetyl-17-bromo-2,21a-dimethyl-8,9,10,11,13,14,20a,21,21a,22,22a,24-dodecahydro-3,13,18,19,22b,24a,25-heptaazabenzo[15,16]cyclopropa[3′,4′]cyclopenta[1′,2′:19, 20]cyclodocosa[1,2,3-cd]indene-12,20,23(4H,7H,19H)-trione]	< 1
CC(=O)c1nn2c3c(cc(-c4cnc(C)nc4)cc13)CCCCCCC(=O)NC[C@@]13C[C@@H](C(=O)N[C@@H](C)[C@H]4CC4(Cl)Cl)N(C(=O)C2)[C@@H]1C3 [Compound 30, (4^1R,4^3S,4^5R)-1^3-acetyl-N-((S)-1-((R)-2,2-dichlorocyclopropyl)ethyl)-1^5-(2-methylpyrimidin-5-yl)-3,7-dioxo-1^1H-4^2,6-diaza-1(1,7)-indazola-4(2,5)-bicyclo[3.1.0]hexanacyclotridecaphane-4^3-carboxamide]	< 1
CC(=O)c1nn2c3c(cc(-c4cnc(C)nc4)cc13)CCCCCCC(=O)NC[C@@]13C[C@@H](C(=O)Nc4nc(Br)ccc4CN4CC(F)C4)N(C(=O)C2)[C@@H]1C3 [Compound 2, (4^1R,4^3S,4^5R)-1^3-acetyl-N-(6-bromo-3-((3-fluoroazetidin-1-yl)methyl)pyridin-2-yl)-1^5-(2-methylpyrimidin-5-yl)-3,7-dioxo-1^1H-4^2,6-diaza-1(1,7)-indazola-4(2,5)-bicyclo[3.1.0]hexanacyclotridecaphane-4^3-carboxamide]	< 1
CC(=O)c1nn2c3c(cc(-c4cnc(C)nc4)cc13)CCCCCCC(=O)NC[C@@]13C[C@@H](C(=O)Nc4nc(OC(F)(F)F)ccc4C)N(C(=O)C2)[C@@H]1C3 [Compound 1, (4^1R,4^3S,4^5R)-1^3-acetyl-N-(3-methyl-6-(trifluoromethoxy)pyridin-2-yl)-1^5-(2-methylpyrimidin-5-yl)-3,7-dioxo-1^1H-4^2,6-diaza-1(1,7)-indazola-4(2,5)-bicyclo[3.1.0]hexanacyclotridecaphane-4^3-carboxamide]	< 1
CC(=O)c1nn2c3c(cc(-c4cnc(C)nc4)cc13)C/C=C/CCCC(=O)N(C)C[C@@]13C[C@@H](C(=O)Nc4cc(F)cc(Br)n4)N(C(=O)C2)[C@@H]1C3 [Compound 13, (4^1R,4^3S,4^5R,E)-1^3-acetyl-N-(6-bromo-4-fluoropyridin-2-yl)-6-methyl-1^5-(2-methylpyrimidin-5-yl)-3,7-dioxo-1^1H-4^2,6-diaza-1(1,7)-indazola-4(2,5)-bicyclo[3.1.0]hexanacyclotridecaphan-11-ene-4^3-carboxamide]	< 1
CC(=O)c1nn2c3c(cc(-c4cnc(C)nc4)cc13)CCCCCCCCc1ccc(Br)nc1NC(=O)[C@H](C)N(C)C(=O)C2 [Compound 51, (S)-2-acetyl-16-bromo-20,21-dimethyl-4-(2-methylpyrimidin-5-yl)-6,7,8,9,10,11,12,13,20,21 - decahydropyrido[2′,3′:8,9][1,4,7]triazacyclononadecino [18,19,1-hi]indazole-19,22(18H,23H)-dione]	> 10
